# Activity calls are given as the source filed them. Cut-off read from the data, not from the text of the source, for most assays here: actives have a measured EC50 and inactives only a lower limit.
# What was measured:
# [1] = NIH-3T3 fibroblast cytotoxicity, dose response, cytotoxicity control, cell-based, fluorescence, Alamar Blue, secondary assay (AID 2327); format: functional;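 note: NIH-3T3 mouse fibroblasts cultured with fluconazole at 8 µg/mL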
# [2] = fluconazole-exposed Candida albicans growth modulators – fluorescence, retest, confirmation (AID 2467); format: functional, cell-based
# Cytochrome P450 3A4 = Cytochrome P450 3A4 (Homo sapiens, UniProt P08684);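 note: CYP3A4 tested as one member of a cytochrome P450 panel screen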
# Cytochrome P450 2C9 = Cytochrome P450 2C9 (Homo sapiens, UniProt P11712)
# Streptokinase A = target: T1, Streptokinase A (Streptococcus pyogenes serotype M1, UniProt P10520); experiment: viability-normalized secreted streptokinase activity reduction – plasminogen activation absorbance, OD405, dose response (AID 1914); format: functional, Streptococcus pyogenes M1 GAS;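 note: secreted streptokinase activity via plasminogen activation per viability signal from cell pellet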
# T1 sequence (P10520 whole entry): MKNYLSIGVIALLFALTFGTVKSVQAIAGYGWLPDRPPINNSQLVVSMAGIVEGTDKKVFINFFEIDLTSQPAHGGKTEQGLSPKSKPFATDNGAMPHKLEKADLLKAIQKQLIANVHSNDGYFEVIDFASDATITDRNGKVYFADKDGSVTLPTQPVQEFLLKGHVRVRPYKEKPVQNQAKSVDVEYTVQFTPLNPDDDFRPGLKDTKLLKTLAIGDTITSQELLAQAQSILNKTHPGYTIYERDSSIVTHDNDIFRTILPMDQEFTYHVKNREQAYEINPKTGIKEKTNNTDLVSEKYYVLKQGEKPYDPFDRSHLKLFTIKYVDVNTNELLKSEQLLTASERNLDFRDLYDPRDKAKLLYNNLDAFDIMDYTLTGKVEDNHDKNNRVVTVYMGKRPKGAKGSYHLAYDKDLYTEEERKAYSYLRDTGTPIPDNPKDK
# Streptococcus = experiment: GAS UMAA2166 growth inhibition – luminescence, BacTiterGlo, counter-screen for streptokinase expression inhibitor project, dose response (AID 1915); format: functional, organism-based;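 note: potency for reduction of bacterial viability or growth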
# [3] = system: Streptococcus sp. 'group A'; experiment: Streptococcus pyogenes SK(-)GAS viability under kanamycin – luminescence, BacTiterGlo, confirmation, counter-screen for streptokinase expression inhibitor project, dose response (AID 1900); format: functional, organism-based
# H4 = experiment: Luminescence Cell-Based Dose Response HTS to Identify Activators of 5'UTR Stem-Loop Driven Prion Protein mRNA Translation in H4 Neuroglioblastoma Cells. [Related pubchem assays: 1829 (Project Summary), 1814 (Primary HTS)]; format: functional; settings: Homo sapiens
# [4] = Luminescence Cell-Based Dose Response HTS to Identify Activators of Luciferase Translation or Activity in H4 […] Cells. [Related pubchem assays: 1829 (Project Summary), 1814 (Primary HTS)]; format: functional
# [5] = Trypanosoma cruzi growth suppression in host cells – NIH3T3 host cells, beta-gal luminescence, confirmation (AID 2044); format: functional, cell-based;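 note: intracellular parasites grown in NIH/3T3 mouse fibroblasts as host cells; luminescent beta-galactosidase reporter signal from transgenic T. cruzi replicating inside host cells; inhibitors lower the luminescence signal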
# [6] = Luminescence Cell-Based Dose Retest to Confirm Inhibitors of Cancer Stem Cells. [Related pubchem assays (depositor defined):AID2717, AID2721]; format: functional; settings: Homo sapiens
# [7] = NIH3T3 cell viability loss – ATP luminescence, mouse fibroblasts, counter-screen, dose response (AID 2010); format: functional, cell-based;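 note: cells exposed to compound for about 90 hours before reading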
# [8] = target: T2, Short transient receptor potential channel 4 (Mus musculus, UniProt Q9QUQ5); experiment: block of DAMGO-driven TRPC4 calcium entry – cell-based, HEK293 TRPC4/mu-opioid, Fluo-4 calcium, dose response (AID 434942); format: functional;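 note: potency of inhibitors blocking the TRPC4 calcium response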
# T2 sequence (Q9QUQ5 whole entry): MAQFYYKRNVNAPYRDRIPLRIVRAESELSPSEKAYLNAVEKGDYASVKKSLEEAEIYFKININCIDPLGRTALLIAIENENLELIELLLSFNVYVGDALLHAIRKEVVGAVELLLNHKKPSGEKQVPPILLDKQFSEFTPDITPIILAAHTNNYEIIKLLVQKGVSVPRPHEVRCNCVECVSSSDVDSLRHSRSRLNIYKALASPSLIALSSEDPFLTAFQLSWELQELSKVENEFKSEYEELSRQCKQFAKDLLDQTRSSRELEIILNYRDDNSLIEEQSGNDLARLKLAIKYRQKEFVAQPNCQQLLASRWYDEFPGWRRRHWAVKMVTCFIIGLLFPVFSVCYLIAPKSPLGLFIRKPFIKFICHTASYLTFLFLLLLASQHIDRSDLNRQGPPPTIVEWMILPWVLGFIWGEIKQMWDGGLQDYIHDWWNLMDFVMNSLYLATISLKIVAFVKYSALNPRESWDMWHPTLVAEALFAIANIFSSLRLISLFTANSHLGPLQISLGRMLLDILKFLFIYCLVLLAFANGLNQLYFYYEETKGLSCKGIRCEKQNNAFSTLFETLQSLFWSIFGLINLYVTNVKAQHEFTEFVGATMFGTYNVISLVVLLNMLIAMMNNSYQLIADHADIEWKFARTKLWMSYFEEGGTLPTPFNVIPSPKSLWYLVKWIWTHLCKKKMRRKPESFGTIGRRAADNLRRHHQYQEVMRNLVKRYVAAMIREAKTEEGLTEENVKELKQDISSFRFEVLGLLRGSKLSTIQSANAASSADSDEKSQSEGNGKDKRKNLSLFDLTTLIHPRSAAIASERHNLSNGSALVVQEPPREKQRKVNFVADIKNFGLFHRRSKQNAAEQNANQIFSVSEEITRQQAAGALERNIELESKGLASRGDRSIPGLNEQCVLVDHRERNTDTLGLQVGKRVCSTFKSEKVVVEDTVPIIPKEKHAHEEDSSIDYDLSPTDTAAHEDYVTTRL
# [9] = viability of uninfected HEp-2 cells – cell-based, HTS, cytotoxicity control for RSV inhibitor project, dose response (AID 2410); format: functional; settings: human respiratory syncytial virus
# [10] = target: T3, Corticotropin-releasing factor receptor 2/Corticotropin-releasing factor-binding protein (Homo sapiens, UniProt P24387+Q13324); experiment: activators of CRF receptor 2 with binding protein – uHTS hits, confirmation (AID 602473); format: functional; settings: read-out: EC50_Mean
# T3 sequence (Q13324 whole entry): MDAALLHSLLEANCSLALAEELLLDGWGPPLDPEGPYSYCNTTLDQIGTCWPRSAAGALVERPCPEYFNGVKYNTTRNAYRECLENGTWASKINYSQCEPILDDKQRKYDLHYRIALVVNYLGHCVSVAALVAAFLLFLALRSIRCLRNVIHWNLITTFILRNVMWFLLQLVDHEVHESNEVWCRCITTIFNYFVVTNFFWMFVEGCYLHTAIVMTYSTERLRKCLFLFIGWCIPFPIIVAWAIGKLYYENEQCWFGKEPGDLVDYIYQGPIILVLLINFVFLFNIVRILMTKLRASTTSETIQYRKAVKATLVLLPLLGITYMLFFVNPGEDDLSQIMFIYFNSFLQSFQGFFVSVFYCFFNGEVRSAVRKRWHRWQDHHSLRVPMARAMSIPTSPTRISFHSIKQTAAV
# T3 sequence (P24387 whole entry): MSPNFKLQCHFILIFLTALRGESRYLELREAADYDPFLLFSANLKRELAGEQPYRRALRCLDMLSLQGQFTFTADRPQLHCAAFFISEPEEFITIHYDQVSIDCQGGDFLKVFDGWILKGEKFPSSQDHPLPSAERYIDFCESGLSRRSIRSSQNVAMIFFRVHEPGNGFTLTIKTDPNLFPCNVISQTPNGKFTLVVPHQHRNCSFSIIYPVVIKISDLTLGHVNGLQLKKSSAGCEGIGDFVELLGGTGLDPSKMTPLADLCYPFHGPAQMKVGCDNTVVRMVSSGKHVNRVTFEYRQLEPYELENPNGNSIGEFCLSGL
# [11] = target: T3, Corticotropin-releasing factor receptor 2/Corticotropin-releasing factor-binding protein; experiment: Dose Response confirmation of uHTS hits for small molecule antagonists of the CRF-binding protein and CRF-R2 receptor complex.; format: functional; settings: read-out: IC50_Mean
# Sequence of Cytochrome P450 3A4 (P08684 whole entry): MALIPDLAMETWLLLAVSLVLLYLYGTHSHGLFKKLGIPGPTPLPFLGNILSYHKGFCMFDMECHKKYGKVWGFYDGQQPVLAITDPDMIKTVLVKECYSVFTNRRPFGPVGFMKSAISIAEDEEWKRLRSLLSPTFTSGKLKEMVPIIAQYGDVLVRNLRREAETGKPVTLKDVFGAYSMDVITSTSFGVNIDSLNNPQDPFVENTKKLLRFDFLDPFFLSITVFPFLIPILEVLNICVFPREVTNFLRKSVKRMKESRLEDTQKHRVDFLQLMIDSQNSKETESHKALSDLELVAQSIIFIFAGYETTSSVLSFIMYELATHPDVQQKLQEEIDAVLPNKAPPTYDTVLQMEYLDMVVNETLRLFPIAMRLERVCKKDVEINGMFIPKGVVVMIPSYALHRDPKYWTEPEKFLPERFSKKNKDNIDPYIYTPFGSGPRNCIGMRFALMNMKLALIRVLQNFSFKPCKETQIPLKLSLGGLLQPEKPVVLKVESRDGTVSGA
# Sequence of Cytochrome P450 2C9 (P11712 whole entry): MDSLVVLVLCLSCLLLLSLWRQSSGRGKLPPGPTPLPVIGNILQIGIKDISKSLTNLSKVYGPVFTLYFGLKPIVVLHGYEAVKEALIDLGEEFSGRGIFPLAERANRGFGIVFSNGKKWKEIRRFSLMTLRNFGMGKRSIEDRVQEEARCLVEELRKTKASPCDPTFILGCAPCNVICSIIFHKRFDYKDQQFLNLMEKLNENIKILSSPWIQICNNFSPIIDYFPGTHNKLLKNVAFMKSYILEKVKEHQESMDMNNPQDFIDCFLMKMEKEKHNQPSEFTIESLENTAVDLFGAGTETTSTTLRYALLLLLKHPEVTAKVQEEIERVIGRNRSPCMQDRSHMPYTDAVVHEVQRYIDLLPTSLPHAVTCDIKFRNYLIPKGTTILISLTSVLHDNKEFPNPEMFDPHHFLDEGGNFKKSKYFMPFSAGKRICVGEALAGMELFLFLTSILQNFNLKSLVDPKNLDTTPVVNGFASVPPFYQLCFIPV
smiles,measurement,setting,value
S=C(NCCN1CCOCC1)NC1CCCC1,EC50,[1],> 150 µM (inactive)
same,EC50,[2],> 38 µM (not active)
CCNc1ncc2nc(-c3cccs3)c(=O)n(C)c2n1,AC50,Cytochrome P450 3A4,12.6 µM (inconclusive)
same,AC50,Cytochrome P450 2C9,10 µM (inconclusive)
COc1cccc(Cn2c(=O)c(-c3cn(C)c4ccccc34)nc3cncnc32)c1,AC50,Cytochrome P450 3A4,10 µM (inconclusive)
same,AC50,Cytochrome P450 2C9,0.794 µM (inconclusive)
CCOC(=O)c1sc(Nc2nc3ccc(OC)cc3s2)cc1C,EC50,Streptokinase A,> 150 µM (not active)
same,EC50,Streptococcus,8.88 µM (active)
same,EC50,[3],9.29 µM (active)
COc1cc2c(cc1NC(=O)c1ccccc1F)CCCC2,EC50,H4,> 120 µM (not active)
same,EC50,[4],89.6 µM (active)
CCc1c(C)c(C#N)c2nc3ccccc3n2c1S,EC50,Streptokinase A,> 150 µM (not active)
same,EC50,Streptococcus,21.5 µM (active)
same,EC50,[3],14.6 µM (active)
CCCc1nc2ccccc2c(C(=O)OCC(=O)N2CCc3ccccc32)c1CC,EC50,[5],0.496 µM (active)
same,AC50,[6],3.04 µM (active)
same,EC50,[7],> 60 µM (not active)
CCOC(=O)C1CCN(CC(O)COc2ccc(C(C)(C)C)cc2)CC1 (configuration not stated),EC50,[8],1.88 µM (active)
COCCn1c(SCC(=O)Nc2ccc(F)cc2)nc2c3ccccc3nc-2c1O,EC50,Streptokinase A,> 150 µM (not active)
same,EC50,Streptococcus,> 150 µM (not active)
same,EC50,[3],> 150 µM (not active)
COC(=O)[C@@H]1CCCN1Cc1nc(Cc2ccccc2F)no1,EC50,[1],> 160 µM (inactive)
same,EC50,[2],> 38 µM (not active)
Fc1ccccc1COc1ccc(-c2nnn(Cc3ccccc3F)n2)cc1,AC50,[6],5.63 µM (active)
Cc1cccc(Nc2nnc(-c3ccc(N4CCOCC4)c([N+](=O)[O-])c3)c3ccccc23)c1,EC50,Streptokinase A,> 150 µM (not active)
same,EC50,Streptococcus,125 µM (active)
same,EC50,[3],3.77 µM (active)
CCSc1cc(N2CCCC2)nc(-c2ccccc2)n1,EC50,Streptokinase A,66.1 µM (active)
same,EC50,Streptococcus,> 150 µM (not active)
same,EC50,[3],> 150 µM (not active)
Oc1c2cnnc-2nc(SCc2c(F)cccc2F)n1-c1ccc(Cl)cc1,EC50,Streptokinase A,> 150 µM (not active)
same,EC50,Streptococcus,> 150 µM (not active)
same,EC50,[3],14.1 µM (active)
CC(=O)Nc1cccc(C(=O)NCC2(N3CCCCC3)CCCCC2)c1,EC50,[8],2.66 µM (active)
Cc1ccc(Cn2ccc(NC(=O)c3cc(C)on3)n2)cc1,EC50,[1],> 150 µM (inactive)
same,EC50,[2],> 38 µM (not active)
Cn1cc(CN2CCCCC2CO)c(-c2ccc(Oc3ccccc3)cc2)n1 (configuration not stated),EC50,[8],7.5 µM (active)
O=C(CC1Nc2ccccc2NC1=O)Nc1ccccc1 (configuration not stated),AC50,[6],0.568 µM (active)
COc1cc(OC)cc(-c2cc3nc4c(c(N5CCN(c6ncccn6)CC5)n3n2)CCCC4)c1,EC50,Streptokinase A,> 150 µM (not active)
same,EC50,Streptococcus,106 µM (active)
same,EC50,[3],13.2 µM (active)
COC(=O)c1ccc(NS(=O)(=O)c2cc(-c3cc(C)no3)ccc2OC)cc1,EC50,[1],127 µM (active)
same,EC50,[2],> 38 µM (not active)
Oc1nc(NN=C(S)NC2CCCCC2)nc2c1C1(CCCC1)Cc1ccccc1-2,CC50,[9],25.7 µM (active)
same,EC50,Streptokinase A,16.1 µM (active)
same,EC50,Streptococcus,17.2 µM (active)
same,EC50,[3],5.2 µM (active)
COc1ccc(NC(=O)c2cc(-c3ccccc3OC)on2)cc1,EC50,[10],> 53 µM (inactive)
same,IC50,[11],> 47.1 µM (inactive)
same,AC50,[6],0.248 µM (active)
C[C@@H]1OC2C3=C(C(=O)[C@H]4O[C@@H]4[C@H]3O)[C@@H]1[C@H]1[C@H](C)OC=C3[C@H](O)[C@H]4O[C@H]4/C(=N\OCc4ccccc4)[C@@]321,AC50,Cytochrome P450 3A4,3.98 µM (inconclusive)
Cc1nn(-c2ccccc2)c(Cl)c1C1C(C#N)=C(N)OC2=C1C(=O)CCC2 (configuration not stated),EC50,Streptokinase A,> 150 µM (not active)
same,EC50,Streptococcus,15.9 µM (active)
same,EC50,[3],1.77 µM (active)
COc1ccccc1C(=O)Nc1ccc2c(c1)CCCN2C(=O)c1cccs1,CC50,[9],21.5 µM (active)
same,EC50,[8],3.35 µM (active)
CCOc1cc(/C=C2\C(=O)N(Cc3ccc(C)cc3)C(C)=C2C(=O)OC)ccc1O,AC50,Cytochrome P450 3A4,1 µM (inconclusive)
CN(C)c1ccc([N+](=O)[O-])cc1C(=O)NCC(c1ccco1)N(C)C (configuration not stated),EC50,[8],0.299 µM (active)
Cc1n[nH]c(C)c1CCCCOc1ccccc1F,EC50,[8],3.76 µM (active)
CN1CCCCc2c1nc1ccccc1c2N.O=C(O)c1cncc(Br)c1,EC50,[8],0.668 µM (active)
Cc1ccc(SCCNC(=O)c2ccccc2)cc1,AC50,Cytochrome P450 3A4,12.6 µM (inconclusive)
NC(=O)c1nsc(C(=O)N(Cc2ccco2)C(C(=O)NCc2ccc(F)cc2)c2ccc(O)cc2)c1N (configuration not stated),EC50,[8],0.105 µM (active)
CCOC(=O)c1[nH]c2cc(OC)c(OC)cc2c1NC(=O)c1nonc1C,AC50,Cytochrome P450 3A4,2.82 µM (inconclusive)
CCC/C(=C1/c2ccccc2C(=O)N1c1ccccc1)c1ccc2[nH]ccc2c1,AC50,[6],1.04 µM (active)
Cc1ccc(Oc2ccccc2/C=N/O)cc1,EC50,[8],9.44 µM (active)
NC(=O)N/N=C1\c2ccccc2-c2c(C(N)=O)cccc21,EC50,[8],1.5 µM (active)
C/C(CC(=O)NCc1ccco1)=N\NC(=O)Cc1ccccc1,AC50,Cytochrome P450 3A4,17.8 µM (inconclusive)
O=C(CSc1ccc2ccccc2n1)N/N=C/c1ccccc1O,EC50,Streptokinase A,> 150 µM (not active)
same,EC50,Streptococcus,2.9 µM (active)
same,EC50,[3],1.1 µM (active)
Cc1c(O)cc2c(c1O)C(=O)CC(c1ccccc1)O2 (configuration not stated) [STROBOPININ],EC50,[10],2.69 µM (active)
same,AC50,[6],4.97 µM (active)
